Assay results: patent US8952024B2, “Herbicidal pyrimidone derivatives” (E I du Pont de Nemours and Company, priority 2009, dated 2015)

Columns and labels:
Test in all cases: Test D pre-/postemergence plant response
Type in all cases: in vivo
[1] = tested on: quackgrass (Elytrigia repens); conditions: Postemergence
Method in brief: (§1)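 Greenhouse assay: sown seeds in loam/sand received preemergence spray; simultaneously, emerged seedlings (1- to 4-leaf, 2–18 cm) got postemergence spray of the same surfactant-containing formulation. Rating at 14–21 days by visual comparison with controls, 0 = no effect to 100 = complete control.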

[2] = tested on: goosegrass (Eleusine indica); conditions: Postemergence
Method in brief: as §1

[3] = tested on: sandbur (southern sandbur, Cenchrus echinatus); conditions: Postemergence
Method in brief: as §1

kochia (Kochia scoparia) = conditions: Postemergence
Method in brief: as §1

[4] = tested on: bermudagrass (Cynodon dactylon); conditions: Postemergence, scale 0 to 100 (0 no effect, 100 complete control)
Method in brief: as §1

[5] = tested on: morningglory (pitted morningglory, Ipomoea lacunosa); conditions: Postemergence
Method in brief: as §1

[6] = tested on: purslane (common purslane, Portulaca oleracea); conditions: Postemergence
Method in brief: as §1

[7] = tested on: guineagrass (Panicum maximum); conditions: Postemergence
Method in brief: as §1

[8] = tested on: bluegrass (annual bluegrass, Poa annua); conditions: Postemergence, scale 0 to 100 (0 no effect, 100 complete control)
Method in brief: as §1

[9] = tested on: mallow (common mallow, Malva sylvestris); conditions: Postemergence
Method in brief: as §1

[10] = tested on: dallisgrass (Paspalum dilatatum); conditions: Postemergence
Method in brief: as §1

[11] = tested on: field bindweed (Convolvulus arvensis); conditions: Postemergence
Method in brief: as §1

[12] = tested on: chickweed (common chickweed, Stellaria media); conditions: Postemergence
Method in brief: as §1

[13] = tested on: groundsel (common groundsel, Senecio vulgaris); conditions: Postemergence
Method in brief: as §1

[14] = tested on: large crabgrass (Digitaria sanguinalis); conditions: Postemergence
Method in brief: as §1

[15] = tested on: signalgrass (broadleaf signalgrass, Brachiaria platyphylla); conditions: Postemergence
Method in brief: as §1

[16] = tested on: nutsedge (purple nutsedge, Cyperus rotundus); conditions: Postemergence
Method in brief: as §1

[17] = tested on: johnsongrass (Sorghum halepense); conditions: Postemergence
Method in brief: as §1

[18] = 62 g ai/ha, scale 0 to 100 (0 no effect, 100 complete control)
[19] = 125 g ai/ha, scale 0 to 100 (0 no effect, 100 complete control)
[20] = 250 g ai/ha, scale 0 to 100 (0 no effect, 100 complete control)

COCCCn1c(-c2cccc(F)c2)ncc(C(=O)C2=C(O)C3CCC(C3)C2=O)c1=O (centres unmarked) [Compound 238]
0: Plant response rating, Bluegrass ([8]; 31 g ai/ha)
100: Plant response rating, Groundsel ([13]; 31 g ai/ha, scale 0 to 100) | Plant response rating, Groundsel [13, 18] | Plant response rating, Groundsel [13, 19] | Plant response rating, Groundsel [13, 20]
25: Plant response rating, Guineagrass ([7]; 31 g ai/ha, scale 0 to 100) | Plant response rating, Mallow ([9]; 31 g ai/ha, scale 0 to 100)
30: Plant response rating, Quackgrass [1, 19] | Plant response rating, Chickweed ([12]; 31 g ai/ha, scale 0 to 100)
10: Plant response rating, Dallisgrass ([10]; 31 g ai/ha, scale 0 to 100) | Plant response rating, Nutsedge, Purple [16, 18]
35: Plant response rating, Mallow [9, 18] | Plant response rating, Field Bindweed ([11]; 31 g ai/ha, scale 0 to 100) | Plant response rating, Chickweed [12, 18] | Plant response rating, Signalgrass [15, 18]
65: Plant response rating, Kochia (kochia (Kochia scoparia); [19]) | Plant response rating, Guineagrass [7, 19] | Plant response rating, Dallisgrass [10, 18] | Plant response rating, Signalgrass [15, 20]
20: Plant response rating, Kochia (kochia (Kochia scoparia); 31 g ai/ha, scale 0 to 100) | Plant response rating, Bluegrass ([8]; 125 g ai/ha) | Plant response rating, Signalgrass ([15]; 31 g ai/ha, scale 0 to 100) | Plant response rating, Nutsedge, Purple [16, 19] | Plant response rating, Nutsedge, Purple [16, 20]
80: Plant response rating, Bermudagrass ([4]; 31 g ai/ha) | Plant response rating, Morningglory [5, 18] | Plant response rating, Morningglory [5, 19] | Plant response rating, Crabgrass, Large [14, 20] | Plant response rating, Johnsongrass [17, 20]
5: Plant response rating, Quackgrass ([1]; 31 g ai/ha, scale 0 to 100) | Plant response rating, Quackgrass [1, 18] | Plant response rating, Bluegrass ([8]; 62 g ai/ha) | Plant response rating, Nutsedge, Purple ([16]; 31 g ai/ha, scale 0 to 100)
75: Plant response rating, Goosegrass [2, 19] | Plant response rating, Goosegrass [2, 20] | Plant response rating, Sandbur [3, 18] | Plant response rating, Sandbur [3, 19] | Plant response rating, Kochia (kochia (Kochia scoparia); [20]) | Plant response rating, Guineagrass [7, 20] | Plant response rating, Dallisgrass [10, 20] | Plant response rating, Crabgrass, Large [14, 19] | Plant response rating, Johnsongrass [17, 19]
70: Plant response rating, Goosegrass [2, 18] | Plant response rating, Morningglory ([5]; 31 g ai/ha, scale 0 to 100) | Plant response rating, Dallisgrass [10, 19] | Plant response rating, Crabgrass, Large [14, 18] | Plant response rating, Johnsongrass [17, 18]
50: Plant response rating, Goosegrass ([2]; 31 g ai/ha, scale 0 to 100) | Plant response rating, Sandbur ([3]; 31 g ai/ha, scale 0 to 100) | Plant response rating, Kochia (kochia (Kochia scoparia); [18]) | Plant response rating, Guineagrass [7, 18] | Plant response rating, Mallow [9, 19] | Plant response rating, Field Bindweed [11, 18] | Plant response rating, Field Bindweed [11, 20] | Plant response rating, Chickweed [12, 20] | Plant response rating, Crabgrass, Large ([14]; 31 g ai/ha, scale 0 to 100)
40: Plant response rating, Quackgrass [1, 20] | Plant response rating, Bluegrass ([8]; 250 g ai/ha) | Plant response rating, Chickweed [12, 19]
90: Plant response rating, Bermudagrass ([4]; 62 g ai/ha) | Plant response rating, Morningglory [5, 20]
60: Plant response rating, Purslane ([6]; 31 g ai/ha, scale 0 to 100) | Plant response rating, Purslane [6, 18] | Plant response rating, Purslane [6, 19] | Plant response rating, Purslane [6, 20] | Plant response rating, Mallow [9, 20] | Plant response rating, Signalgrass [15, 19] | Plant response rating, Johnsongrass ([17]; 31 g ai/ha, scale 0 to 100)
95: Plant response rating, Bermudagrass ([4]; 125 g ai/ha) | Plant response rating, Bermudagrass ([4]; 250 g ai/ha)
85: Plant response rating, Sandbur [3, 20]
